Biological target: T1, human M4 muscarinic acetylcholine receptor (Homo sapiens, UniProt P08173)
T1 construct: expressed in transfected cells; host or cells: CHO-K1
T1 sequence (P08173 1-479): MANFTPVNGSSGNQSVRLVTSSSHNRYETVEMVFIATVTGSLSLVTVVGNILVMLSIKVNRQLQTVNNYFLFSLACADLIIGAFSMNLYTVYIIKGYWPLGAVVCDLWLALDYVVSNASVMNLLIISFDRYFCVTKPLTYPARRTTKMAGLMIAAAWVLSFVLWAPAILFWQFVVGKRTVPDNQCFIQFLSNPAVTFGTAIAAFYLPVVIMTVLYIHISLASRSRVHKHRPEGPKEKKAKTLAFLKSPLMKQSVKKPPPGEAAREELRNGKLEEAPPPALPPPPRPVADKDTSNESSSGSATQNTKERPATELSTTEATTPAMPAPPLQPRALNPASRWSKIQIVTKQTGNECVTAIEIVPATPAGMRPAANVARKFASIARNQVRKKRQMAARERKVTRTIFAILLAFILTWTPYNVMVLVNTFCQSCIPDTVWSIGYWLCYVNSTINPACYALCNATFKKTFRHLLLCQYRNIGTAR
Test: human FLIPR-based M4 PAM assay, CHO-K1 cells stably transfected with human M4 receptor and chimeric G-protein Gαqi5
Assay type: cell-based
Conditions: inflection point (IP) of dose response curve; acetylcholine added at 20% of maximum response; CHO-K1 human M4/Gαqi5, FLIPR Tetra
How it was run: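 CHO-K1 cells were loaded with calcium dye at 37 °C for ~1 h. Fluorescence (ex 470–495/em 515–575 nm) was read for 4 min after test compound at increasing concentrations, then 3.5 min after acetylcholine at an EC20; sometimes a third addition at EC70 followed. The value is the inflection point of a 4-parameter logistic fit.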

How did the EC50 turn out when `Cc1ncc(C)c(N2CC[C@H](Oc3cccc(C#N)c3)[C@@H](F)C2)n1` [Example 83, 3-(((3S,4S)-1-(2,5-dimethylpyrimidin-4-yl)-3-fluoropiperidin-4-yl)oxy)benzonitrile] was run?
The EC50 was 475 nM.

Which EC50 does the source give for `Cc1c(Cl)ncnc1N1CCC(Oc2cccc(C#N)c2)CC1` [Example 50, 3-((1-(6-chloro-5-methypyrimidin-4-yl)piperidin-4-yl)oxy)benzonitrile] here?
Its EC50 is 49 nM.

With `COc1ccc(OC2CCN(c3nc(C4CC4)nc(Cl)c3C)CC2)cc1` [Example 95C, 4-chloro-2-cyclopropyl-6-(4-(4-methoxyphenoxy)piperidin-1-yl)-5-methylpyrimidine] as the compound, how does the EC50 read?
Its EC50 is 846 nM.

Which EC50 does the source give for `Cc1cc(C(=O)NC2C3CC2C3)nnc1N1CCC(Oc2cccc(C#N)c2)CC1` (centres unmarked) [Example 117, N-bicyclo[1.1.1]pent-2-yl-6-[4-(3-cyanophenoxy)piperidin-1-yl]-5-methylpyridazine-3-carboxamide] here?
The EC50 was 85 nM.

For `COc1ccc(OC2CCN(c3nnc(-c4nnc(C)o4)cc3C)CC2)cn1` [Example 263, 2-(6-(4-((6-Methoxypyridin-3-yl)oxy)piperidin-1-yl)-5-methylpyridazin-3-yl)-5-methyl-1,3,4-oxadiazole], which EC50 is on record?
Its EC50 is 251 nM.

How did the EC50 turn out when `COc1ccc(OC2CCN(c3nnc(C(=O)NC4CCCC4)cc3C)CC2)cn1` [Example 169, N-cyclopentyl-6-{4-[(6-methoxypyridin-3-yl)oxy]piperidin-1-yl}-5-methylpyridazine-3-carboxamide] was run?
Its EC50 is 459 nM.

`COc1ccc(OC2CCN(c3nnc(C(=O)NC4CC4)cc3C)CC2)cn1` [Example 161, N-cyclopropyl-6-{4-[(6-methoxypyridin-3-yl)oxy]piperidin-1-yl}-5-methylpyridazine-3-carboxamide] was tested. Which EC50 did it give?
Its EC50 is 302 nM.

With `COc1ccc(OC2CCN(c3nc(OC)ncc3C#N)CC2)cc1` [Example 18, 2-methoxy-4-(4-(4-methoxyphenoxy)piperidin-1-yl)pyrimidine-5-carbonitrile] as the compound, how does the EC50 read?
The EC50 was 1890 nM.

For `Cc1c(-c2ccc(F)cc2)ncnc1N1CCC(Oc2cccc(C#N)c2)CC1` [Example 254, 3-((1-(6-(4-fluorophenyl)-5-methylpyrimidin-4-yl)piperidin-4-yl)oxy)benzonitrile], which EC50 is on record?
The EC50 was 2470 nM.

Which EC50 does the source give for `COc1ccc(OC2CCN(c3nc(C(=O)NC4CCc5cccnc5C4)nc(Cl)c3C)CC2)cn1` (centres unmarked) [Example 217, 4-chloro-6-(4-((6-methoxypyridin-3-yl)oxy)piperidin-1-yl)-5-methyl-N-(5,6,7,8-tetrahydroquinolin-7-yl)pyrimidine-2-carboxamide] here?
Its EC50 is 1020 nM.

How did the EC50 turn out when `COc1ccc(OC2CCN(c3ncnc(-c4ccc(F)nc4)c3C)CC2)cn1` [Example 246, 4-(6-fluoropyridin-3-yl)-6-(4-((6-methoxypyridin-3-yl)oxy)piperidin-1-yl)-5-methylpyrimidine] was run?
Its EC50 is 633 nM.

Which EC50 does the source give for `COc1ccc(OC2CCN(c3nc(C(=O)NCCc4ccncc4)nc(Cl)c3C)CC2)cn1` [Example 208, 4-chloro-6-(4-((6-methoxypyridin-3-yl)oxy)piperidin-1-yl)-5-methyl-N-(2-(pyridin-4-yl)ethyl)pyrimidine-2-carboxamide] here?
The EC50 was 491 nM.

For `COc1ccc(OC2CCN(c3ncnc(N4CC5CC4CO5)c3C)CC2)cn1` (centres unmarked) [Example 238, 5-(6-(4-((6-methoxypyridin-3-yl)oxy)piperidin-1-yl)-5-methylpyrimidin-4-yl)-2-oxa-5-azabicyclo[2.2.1]heptane], which EC50 is on record?
The EC50 was 3060 nM.

How did the EC50 turn out when `COc1ccc(OC2CCN(c3nnc(C(=O)Nc4ccc(CC(F)(F)F)cc4)cc3C)CC2)cn1` [Example 190, 6-{4-[(6-methoxypyridin-3-yl)oxy]piperidin-1-yl}-5-methyl-N-[4-(2,2,2-trifluoroethyl)phenyl]pyridazine-3-carboxamide] was run?
The EC50 was 2000 nM.

For `COc1ccc(OC2CCN(c3nc(C(=O)NC(C)(C)c4ccncc4)nc(Cl)c3C)CC2)cn1` [Example 220, 4-chloro-6-(4-((6-methoxypyridin-3-yl)oxy)piperidin-1-yl)-5-methyl-N-(2-(pyridin-4-yl)propan-2-yl)pyrimidine-2-carboxamide], which EC50 is on record?
Its EC50 is 1430 nM.

With `COc1ccc(OC2CCN(c3nnc(C(=O)NCc4ccccc4)cc3C)CC2)cn1` [Example 193, N-benzyl-6-{4-[(6-methoxypyridin-3-yl)oxy]piperidin-1-yl}-5-methylpyridazine-3-carboxamide] as the compound, how does the EC50 read?
The EC50 was 35 nM.

How did the EC50 turn out when `Cc1c(Cl)nc(CO)nc1N1CCC(Oc2ccc3c(c2)C(=O)CCO3)CC1` [Example 21, 6-((1-(6-chloro-2-(hydroxymethyl)-5-methylpyrimidin-4-yl)piperidin-4-yl)oxy)chroman-4-one] was run?
The EC50 was 57 nM.

For `COC(=O)c1cnc(N2CCC(Oc3ccc(OC)nc3)CC2)c(C)c1` [Example 37, methyl 6-(4-((6-methoxypyridin-3-yl)oxy)piperidin-1-yl)-5-methylnicotinate], which EC50 is on record?
Its EC50 is 225 nM.

For `CONC(=O)c1cc(C)c(N2CCC(Oc3cccc(C#N)c3)CC2)nn1` [Example 132, 6-[4-(3-cyanophenoxy)piperidin-1-yl]-N-methoxy-5-methypyridazine-3-carboxamide], which EC50 is on record?
Its EC50 is 139 nM.

With `COc1ccc(OC2CCN(c3nnc(C(=O)N[C@H]4CCc5ncccc5C4)cc3C)CC2)cn1` [Example 141B, (S)-6-(4-((6-methoxypyridin-3-yl)oxy)piperidin-1-yl)-5-methyl-N-(5,6,7,8-tetrahydroquinolin-6-yl)pyridazine-3-carboxamide] as the compound, how does the EC50 read?
Its EC50 is 173 nM.

With `COc1ccc(OC2CCN(c3nnc(C(=O)NCc4ccc(C#N)cc4)cc3C)CC2)cn1` [Example 171, N-(4-cyanobenzyl)-6-{4-[(6-methoxypyridin-3-yl)oxy]piperidin-1-yl}-5-methylpyridazine-3-carboxamide] as the compound, how does the EC50 read?
The EC50 was 471 nM.

Which EC50 does the source give for `COc1ccc(OC2CCN(c3nc(SC)nc(Cl)c3C)CC2)cn1` [Example 82, 4-chloro-6-(4-((6-methoxypyridin-3-yl)oxy)piperidin-1-yl)-5-methyl-2-(methylthio)pyrimidine] here?
The EC50 was 385 nM.

With `Cc1c(Cl)nc(CO)nc1N1CCC(Oc2ccc3c(cnn3C)c2)CC1` [Example 31, (4-chloro-5-methyl-6-(4-((1-methyl-1H-indazol-5-yl)oxy)piperidin-1-yl)pyrimidin-2-yl)methanol] as the compound, how does the EC50 read?
Its EC50 is 157 nM.

`Cc1ncc(C)c(N2CC[C@@H](Oc3cccc(C#N)c3)[C@H](F)C2)n1` [Example 71, 3-(((3R,4R)-1-(2,5-dimethylpyrimidin-4-yl)-3-fluoropiperidin-4-yl)oxy)benzonitrile] was tested. Which EC50 did it give?
Its EC50 is 135 nM.

For `COc1ccc(OC2CCN(c3nnc(C(=O)NCc4ccccc4Cl)cc3C)CC2)cn1` [Example 195, N-(2-chlorobenzyl)-6-{4-[(6-methoxypyridin-3-yl)oxy]piperidin-1-yl}-5-methylpyridazine-3-carboxamide], which EC50 is on record?
The EC50 was 57 nM.

How did the EC50 turn out when `COc1ccc(OC2CCN(c3nc(C(=O)NC4CCCc5cnccc54)nc(Cl)c3C)CC2)cn1` (centres unmarked) [Example 214, 4-chloro-6-(4-((6-methoxypyridin-3-yl)oxy)piperidin-1-yl)-5-methyl-N-(5,6,7,8-tetrahydroisoquinolin-5-yl)pyrimidine-2-carboxamide] was run?
The EC50 was 770 nM.

With `Cc1ncc(C)c(N2CC[C@@H](Oc3cccc(C#N)c3)[C@@H](F)C2)n1` [Example 75, 3-(((3S,4R)-1-(2,5-dimethylpyrimidin-4-yl)-3-fluoropiperidin-4-yl)oxy)benzonitrile] as the compound, how does the EC50 read?
The EC50 was 156 nM.

How did the EC50 turn out when `Cc1c(Cl)nc(CO)nc1N1CCC(Oc2ccc3c(c2)NC(=O)CC3)CC1` [Example 30, 7-((1-(6-chloro-2-(hydroxymethyl)-5-methylpyrimidin-4-yl)piperidin-4-yl)oxy)-3,4-dihydroquinolin-2(1H)-one] was run?
The EC50 was 140 nM.

For `Cc1cc(C(=O)NCc2ccncc2)nnc1N1CCC(OCC2CC2)CC1` [Example 152], which EC50 is on record?
The EC50 was 259 nM.

For `Cc1c(Cl)nc(CO)nc1N1CCC(Oc2ccc3c(c2)C(=O)N(C)CC3)CC1` [Example 41, 7-((1-(6-chloro-2-(hydroxymethyl)-5-methylpyrimidin-4-yl)piperidin-4-yl)oxy)-2-methyl-3,4-dihdyroisoquinolin-1(2H)-one], which EC50 is on record?
The EC50 was 322 nM.

Which EC50 does the source give for `CCCc1ncnc(N2CCC(Oc3ccc(OC)nc3)CC2)c1C` [Example 248, 4-(4-((6-methoxypyridin-3-yl)oxy)piperidin-1-yl)-5-methyl-6-propylpyrimidine] here?
Its EC50 is 1550 nM.

For `Cc1ncc(C)c(N2CCC(Oc3ccc4c(c3)C(=O)OC4)CC2)n1` [Example 99, 6-((1-(2,5-Dimethylpyrimidin-4-yl)piperidin-4-yl)oxy)isobenzofuran-1(31-1)-one], which EC50 is on record?
Its EC50 is 319 nM.

With `COc1ccc(OC2CCN(c3nc(C(=O)NC4CCc5ccccc5C4)nc(Cl)c3C)CC2)cn1` (centres unmarked) [Example 221, 4-chloro-6-(4-((6-methoxypyridin-3-yl)oxy)piperidin-1-yl)-5-methyl-N-(1,2,3,4-tetrahydronaphthalen-2-yl)pyrimidine-2-carboxamide] as the compound, how does the EC50 read?
Its EC50 is 1830 nM.

Which EC50 does the source give for `COC1CCN(c2nnc(C(=O)NCc3ccncc3)cc2C)CC1` [Example 7, 6-(4-methoxypiperidin-1-yl)-5-methyl-N-(pyridin-4-ylmethyl)pyridazine-3-carboxamide] here?
The EC50 was 1240 nM.

Which EC50 does the source give for `COc1ccc(OC2CCN(c3nnc(C(=O)NCc4cc(C)n(C)n4)cc3C)CC2)cn1` [Example 155, N-[(1,5-dimethyl-1H-pyrazol-3-yl)methyl]-6-{4-[(6-methoxypyridin-3-yl)oxy]piperidin-1-yl}-5-methylpyridazine-3-carboxamide] here?
The EC50 was 265 nM.
